In patent publication US20110118274A1, “PROTEASOME INHIBITORS AND THEIR USE IN TREATING PATHOGEN INFECTION AND CANCER” (CORNELL RESEARCH FOUNDATION, INC., priority 2007, published 2011) one finds Selectivity data, which are given here for one compound.

This assay has as its system Mtb PrcAB-OG. Kind of assay: biochemical. The assay is classed as biochemical, Mycobacterium tuberculosis.

The compound `CSc1sc(C)cc1-c1nsc(=O)o1` [GL5] came in with a Selectivity of 63.8.
